Laboratory results as given in patent EP1094711B1, “METHODS FOR ERADICATION OF NANOBACTERIA” (Nanobac Oy, priority 1998, dated 2000).
Structures can show the parent of a compound that is named as a salt. Where two headings read alike, the source gives them in different places.

Tests used:
nanobacteria = assay: Antibiotic sensitivity test by Minimal Inhibition Concentration (MIC), 96-well plates, absorbance at 650 nm; type: cell-based
Method: Antibiotic sensitivity tests were carried out by measuring Minimal Inhibition Concentration (MIC), a common practice in clinical microbiology.
The tests were performed in 96-well plates. DMEM (commercial cell culture medium) containing 10% gamma-irradiated fetal bovine serum (FBS)(dose about 3 Mrads; this treatment inactivates nanobacteria in the serum so that the basic medium is sterile) was used as the basic culture medium. These components are commercially available, e.g., from Gibco. The antibiotic stock solutions were sterile filtered through 0.2 micrometer filters. The stock solutions were then serially diluted (into the basal culture medium) to provide a final starting concentration of 0.5 mg/ml and 1:2 dilutions therefrom, unless otherwise specified. For each antibiotic three parallel tests were performed using all the antibiotic dilutions and, additionally, positive and negative control experiments. […] 100 µl of dilutions of the nanobacteria inoculum were added to all wells except the negative controls. The plates were incubated at mammalian cell culture conditions (37° Celsius, 5% carbon dioxide, 95% humid air). The absorbance values at 650 nm were recorded by using an ELISA reader at the start, and at 4, 8, 12, 14 days. […] Calculations were based on absorbance curves where absorbance was plotted against concentration of the antibiotic.

SF-nanobacteria = assay: Chemical disinfection of SF-nanobacteria; type: cell-based; set-up: key to Resistance of SF-nanobacteria to chemical disinfectants (survival) / partial or total detachment on exposure: +++: No effect; ++: Reduced survival; +: Markedly reduced survival; - : No survival; * = partial or total detachment on exposure; details: for Resistance of SF-nanobacteria to chemical disinfectants (survival): survival after subculture compared to diluent only; for effect of chemical disinfection on SF-nanobacteria (in words): exposure at room temperature, then subculture
From the text: The cultures were exposed to the disinfectants after removal of the culture medium. For the autoclaving, UV, microwave, and drying treatments, the medium was removed and an equal amount of PBS used instead. For the heat treatments, the SF-nanobacteria were harvested by scraping the culture vessel followed by centrifugation of the medium. The obtained pellet was suspended in PBS and used in the test. After treatments the SF-nanobacteria were subcultured in DMEM medium and the growth followed by light microscopy to see the adherence and typical mineralization.
The concentrations of the chemicals used were those commonly used for disinfection or as instructed by the manufacturer. The chemicals included 70% ethanol, 2% glutaraldehyde, 4% formaldehyde, 0.5% hypochlorite, 3% hydrogen peroxide, 1M hydrochloric acid (HCl), 1M sodium hydroxide (NaOH) , 1% sodium dodecyl sulfate (SDS), 1% Tween 80, 1 % Triton X-100, 3M guanidium-hydrochloride, 3M urea, 1% Virkon® (Antec International Ltd., Suffolk, England; 100% product contains 50% potassium persulfate, 5% sulfaminoic acid), 1.5% Erifenol® (Orion OY, Finland; 100% product contains <5% NaOH, <5% o-benzyl-p-chlorophenol, 5-15% p-chloro-m-cresol), 1% Klorilli® (Orion OY, Finland; 100% product contains sodium metasilicate, sodium N-chloro-p-toluenesulfonamide-3-hydrate and 20,000 ppm active chlorine), and 3% Buraton® (Schülke & Mayr, Germany; 100% product contains 4.5% formaldehyde, 6.8% glyoxal, 1.5% glyoxylic acid, 6% dimethylaurylbenzyl-ammonium chloride). The dilutions to be used were freshly prepared on the day of exposure in sterile distilled water. As a positive control, only diluent was used. Negative control contained only culture medium.
The SF-nanobacteria were exposed to the chemicals for 10 and 30 minutes at room temperature after removal of the culture medium. After exposure, the disinfectant solution was removed and fresh medium added (with a neutralization step in the case of HCl and NaOH). If any significant deattachment occurred, nanobacteria were recovered by centrifugation, and subcultured. The exposed serum-free cultures were passaged 1:10 after 48 hours and the growth was followed by light microscopy for three weeks.

[1] = light or radiation study, 288 h; 90% inhibition, 12 day time point, DMEM with 10% gamma-irradiated FBS; read-out: MIC 90
[2] = light or radiation study, 288 h; read-out: MIC 50
[3] = Exposure time 10 min, room temperature
[4] = Exposure time 30 min, room temperature
[5] = 50% inhibition, 12 day time point, DMEM with 10% gamma-irradiated FBS
[6] = short chain organic acids tested later in culture tests; read-out: MIC50 values

O=C1CN(/N=C/c2ccc([N+](=O)[O-])o2)C(=O)N1 [Nitrofurantoin]
IC90 (nanobacteria; [1]): 1.5 µg/mL
IC50 (nanobacteria; [2]): 0.6 µg/mL

hypochlorite [0.5% hypochlorite]
Resistance of SF-nanobacteria to chemical disinfectants (survival) (SF-nanobacteria; [3]): +++
Resistance of SF-nanobacteria to chemical disinfectants (survival) (SF-nanobacteria; [4]): +++

CCCCCCCC/C=C\CCCCCCCC(=O)OCCOCC(OCCO)C1OCC(OCCO)C1OCCO (centres unmarked) [1 % Tween 80, Tween 80]
Resistance of SF-nanobacteria to chemical disinfectants (survival) (SF-nanobacteria; [3]): +++
Resistance of SF-nanobacteria to chemical disinfectants (survival) (SF-nanobacteria; [4]): +++

hydrochloric acid [1M HCl]
partial or total detachment on exposure (SF-nanobacteria; [4]): *
Resistance of SF-nanobacteria to chemical disinfectants (survival) (SF-nanobacteria; [4]): ++
effect of chemical disinfection on SF-nanobacteria (in words) (SF-nanobacteria; listed as Hydrochloric acid): dissolved the apatite layer
effect of chemical disinfection on SF-nanobacteria (in words) (SF-nanobacteria; listed as hydrochloric acid): could not kill nanobacteria

[H]/N=C(/N)N[C@H]1[C@H](O)[C@@H](O)[C@H](O[C@@H]2O[C@@H](C)[C@](O)(C=O)[C@H]2O[C@@H]2O[C@@H](CO)[C@H](O)[C@@H](O)[C@@H]2NC)[C@@H](N/C(N)=N\[H])[C@@H]1O [Streptomycin]
antinanobacterial effect in the in vitro test (in words) (nanobacteria; in vitro MIC test): bacteriostatic effects at high antibiotic concentrations
IC50 (nanobacteria; [2]): > 500 µg/mL

O=P(O)(O)C(Cl)(Cl)P(=O)(O)O [Chlodronate]
antinanobacterial effect in the in vitro test (in words) (nanobacteria; in vitro MIC test): bacteriocidic effect
IC90 (nanobacteria; [1]): 0.5 µg/mL
IC50 (nanobacteria; [2]): 0.1 µg/mL

CC1=CC(=O)c2ccccc2C1=O [Vitamin K (Menadion), Menadion]
antinanobacterial effect in the in vitro test (in words) (nanobacteria; in vitro MIC test): toxic to nanobacteria
IC50 (nanobacteria; [2]): 2 µg/mL

O=CCCCC=O [2% glutaraldehyde, glutaraldehyde]
Resistance of SF-nanobacteria to chemical disinfectants (survival) (SF-nanobacteria; [3]): +++
Resistance of SF-nanobacteria to chemical disinfectants (survival) (SF-nanobacteria; [4]): +++

Cc1ncc([N+](=O)[O-])n1CCO [Metronidasole]
MIC 50 (nanobacteria; [5]): >500 µg/mL

CC1(C)S[C@@H]2[C@H](NC(=O)[C@H](N)c3ccccc3)C(=O)N2[C@H]1C(=O)O [Ampicillin]
antinanobacterial effect in the in vitro test (in words) (nanobacteria; in vitro MIC test): weak bacteriostatic effect
IC50 (nanobacteria; [2]): 500 µg/mL

CC(=O)O [acetic acid]
IC50 (nanobacteria; [6]): 10 to 50 mM

CO[C@H]1/C=C/O[C@@]2(C)Oc3c(C)c(O)c4c(O)c(c(/C=N/N5CCN(C)CC5)c(O)c4c3C2=O)NC(=O)/C(C)=C\C=C\[C@H](C)[C@H](O)[C@@H](C)[C@@H](O)[C@@H](C)[C@H](OC(C)=O)[C@@H]1C [Rifampicin]
IC50 (nanobacteria; [2]): > 500 µg/mL

COc1cc(Cc2cnc(N)nc2N)cc(OC)c1OC [Trimethoprim]
antinanobacterial effect in the in vitro test (in words) (nanobacteria; in vitro MIC test): bacteriostatic
IC90 (nanobacteria; [1]): 5 µg/mL
IC50 (nanobacteria; [2]): 0.7 µg/mL

N=C(N)N [3M Guanidium HCl, guanidium-hydrochloride]
Resistance of SF-nanobacteria to chemical disinfectants (survival) (SF-nanobacteria; [4]): 0
effect of chemical disinfection on SF-nanobacteria (in words) (SF-nanobacteria): deattachment

NC(N)=O [3M Urea, urea]
Resistance of SF-nanobacteria to chemical disinfectants (survival) (SF-nanobacteria; [3]): +++
Resistance of SF-nanobacteria to chemical disinfectants (survival) (SF-nanobacteria; [4]): +++

CC(O)C(=O)O (centres unmarked) [lactic acid]
IC50 (nanobacteria; [6]): 10 to 50 mM

CC[C@H]1OC(=O)[C@H](C)[C@@H](O[C@H]2C[C@@](C)(OC)[C@@H](O)[C@H](C)O2)[C@H](C)[C@@H](O[C@@H]2O[C@H](C)C[C@H](N(C)C)[C@H]2O)[C@](C)(OC)C[C@@H](C)C(=O)[C@H](C)[C@@H](O)[C@]1(C)O [Clarithromycin]
IC50 (nanobacteria; [2]): > 500 µg/mL

O=C(O)CN(CCOCCOCCN(CC(=O)O)CC(=O)O)CC(=O)O [EGTA]
antinanobacterial effect in the in vitro test (in words) (nanobacteria; in vitro MIC test): antinanobacterial effects

Neomycin
MIC 50 (nanobacteria; [5]): 16 µg/mL
MIC 90 (nanobacteria; 90% inhibition, 12 day time point, DMEM with 10% gamma-irradiated FBS): 30 µg/mL
antinanobacterial effect in the in vitro test (in words) (nanobacteria; in vitro MIC test): bacteriostatic effects at high antibiotic concentrations

CN(C)[C@@H]1C(O)=C(C(N)=O)C(=O)[C@@]2(O)C(O)=C3C(=O)c4c(O)cccc4[C@@](C)(O)[C@H]3C[C@@H]12 [Tetracycline]
IC50 (nanobacteria; light or radiation study, 288 h, read-out: MIC 50): 0.3 µg/mL
IC90 (nanobacteria; light or radiation study, 288 h, read-out: MIC 90): 1.3 µg/mL

CN[C@H](CC(C)C)C(=O)N[C@H]1C(=O)N[C@@H](CC(N)=O)C(=O)N[C@H]2C(=O)N[C@H]3C(=O)N[C@H](C(=O)N[C@H](C(=O)O)c4cc(O)cc(O)c4-c4cc3ccc4O)[C@H](O)c3ccc(c(Cl)c3)Oc3cc2cc(c3O[C@@H]2O[C@H](CO)[C@@H](O)[C@H](O)[C@H]2O[C@H]2C[C@](C)(N)[C@H](O)[C@H](C)O2)Oc2ccc(cc2Cl)[C@H]1O [Vancomycin]
antinanobacterial effect in the in vitro test (in words) (nanobacteria; in vitro MIC test): effective bacteriostat
IC90 (nanobacteria; [1]): 250 µg/mL
IC50 (nanobacteria; [2]): 130 µg/mL

O=C(N[C@H](CO)[C@H](O)c1ccc([N+](=O)[O-])cc1)C(Cl)Cl [Chloramphenicol]
IC50 (nanobacteria; [2]): > 500 µg/mL

C=O [4% formaldehyde, formaldehyde]
Resistance of SF-nanobacteria to chemical disinfectants (survival) (SF-nanobacteria; [3]): +++
Resistance of SF-nanobacteria to chemical disinfectants (survival) (SF-nanobacteria; [4]): +++

hydrogen peroxide [3% H2O2]
Resistance of SF-nanobacteria to chemical disinfectants (survival) (SF-nanobacteria; [3]): +++
Resistance of SF-nanobacteria to chemical disinfectants (survival) (SF-nanobacteria; [4]): +++

Polymyxin B
MIC 50 (nanobacteria; [5]): >500 µg/mL

O=C1O[C@H]([C@@H](O)CO)C(O)=C1O [ascorbic acid]
IC50 (nanobacteria; [6]): 10 to 50 mM

CCO [70% ethanol, ethanol]
Resistance of SF-nanobacteria to chemical disinfectants (survival) (SF-nanobacteria; [3]): +++
Resistance of SF-nanobacteria to chemical disinfectants (survival) (SF-nanobacteria; [4]): +++

CC[C@@H](CO)NCCN[C@@H](CC)CO [Ethambutol]
IC50 (nanobacteria; [2]): > 500 µg/mL

CC(=O)OCC1=C(C(=O)O)N2C(=O)[C@@H](NC(=O)Cc3cccs3)[C@H]2SC1 [Cephalothin]
IC50 (nanobacteria; [2]): > 500 µg/mL

Penicillin
MIC 50 (nanobacteria; [5]): >500 µg/mL

CCC[C@@H]1C[C@@H](C(=O)N[C@@H]([C@H]2O[C@H](SC)[C@H](O)[C@@H](O)[C@H]2O)[C@@H](C)O)N(C)C1 [Lincomycin]
IC50 (nanobacteria; [2]): > 500 µg/mL

Nc1ccc(C(=O)O)c(O)c1 [para-aminosalicylic acid]
MIC value compared with acetylsalicylic acid (nanobacteria): identical with acetylsalicylic acid

CC(=O)Oc1ccccc1C(=O)O [Acetylsalicylic acid]
IC50 (nanobacteria; 288 h; read-out: MIC 50): 500 µg/mL
antinanobacterial effect in the in vitro test (in words) (nanobacteria; in vitro MIC test): weak

Vitamin D
IC50 (nanobacteria; 50% inhibition, 12 day time point; read-out: MIC 50): > 0.025 mM
antinanobacterial effect in the in vitro test (in words) (nanobacteria; in vitro MIC test): very weak inhibitory effect

NC(=O)c1cnccn1 [Pyrazinamide]
IC50 (nanobacteria; [2]): > 500 µg/mL

CC(O)(P(=O)(O)O)P(=O)(O)O [Ethidronate]
antinanobacterial effect in the in vitro test (in words) (nanobacteria; in vitro MIC test): bacteriocidic effect
IC90 (nanobacteria; [1]): 0.5 µg/mL
IC50 (nanobacteria; [2]): 0.1 µg/mL

O=C(O)CC(O)(CC(=O)O)C(=O)O [Citrate]
IC90 (nanobacteria; 288 h; 90% inhibition, 12 day time point; read-out: MIC 90): 1 mM
IC50 (nanobacteria; 288 h; read-out: MIC 50): 0.2 mM
antinanobacterial effect in the in vitro test (in words) (nanobacteria; in vitro MIC test): effective antinanobacterial agent
